From patent US8324247B2, “Method for treating pulmonary arterial hypertension” (Ventrus Biosciences, Inc., priority 2009, dated 2012)

Tested on: acute hypoxia-induced pulmonary hypertension
Assay: Acute hypoxia-induced pulmonary hypertension in rats (mean pulmonary arterial pressure)
Assay type: in vivo, rat
Description: Measurement of Pulmonary and Systemic Arterial Pressure
Male Sprague-Dawley rats were obtained from Charles River Breeding Laboratories (Wilmington, Mass.) at 9-10 wk of age. For pulmonary arterial pressure measurement, a closed-chest technique (1-4). Under ketamine (80 mg/kg) and xylazine (5 mg/kg) anesthesia, a small transverse cut was made in the proximal right external jugular vein through passed. The introducer was a blunted 7.5 cm, 19-gauge needle with the tip turned up 30 degrees. The Silastic catheter filled with heparinsaline solution was passed through the introducer and attached by a 25 gauge blunted needle to a pressure transducer (model CP-01, Century Technology, Inglewood, Calif.) coupled to a polygraph (model 7, Grass Instruments, Quincy, Mass.). After the introducer was placed in the right ventricular cavity, the tip was directed anteriorly. The catheter was then advanced into the pulmonary artery. Catheter position was identified by the pressure tracing. The introducer was slipped out over the catheter and removed after a typical pulmonary arterial pressure tracing was recorded. […] One day after catheterization, mean pulmonary arterial pressure (MPAP), mean systemic arterial pressure (MSAP) were recorded through the pulmonary and femora arterial catheters via transducers coupled to the polygraph. […]

`CN1CCCC[C@H]1CCc1ccccc1NC(=O)/C=C/c1ccccc1` [Iferanserin, S-2′-[2-(1-methyl-2-piperidyl)ethyl] cinnamanilide] was tested, and the “effect on acute hypoxia-induced pulmonary hypertension” value (adult male Sprague-Dawley rats, 3 and 10 mg/kg p.o., given 45 min before normobaric hypoxia (10% O2) for 90 min) was “partially inhibited” and the “dose dependence of the effect on acute hypoxia-induced pulmonary hypertension” value (adult rats, within the range of 3-10 mg/kg, p.o.) was “no dose-dependent response”.
